Data as given in ChEMBL document CHEMBL1201862, “PubChem BioAssay data set” (2004).
Calls of active or inactive are those of the source.

Assays:
[1] = biological target: T1, Methionyl-tRNA synthetase, putative (Trypanosoma brucei brucei, UniProt Q38C91); format: functional, Trypanosoma brucei brucei strain 927/4 GUTat10.1
T1 sequence (Q38C91 whole entry): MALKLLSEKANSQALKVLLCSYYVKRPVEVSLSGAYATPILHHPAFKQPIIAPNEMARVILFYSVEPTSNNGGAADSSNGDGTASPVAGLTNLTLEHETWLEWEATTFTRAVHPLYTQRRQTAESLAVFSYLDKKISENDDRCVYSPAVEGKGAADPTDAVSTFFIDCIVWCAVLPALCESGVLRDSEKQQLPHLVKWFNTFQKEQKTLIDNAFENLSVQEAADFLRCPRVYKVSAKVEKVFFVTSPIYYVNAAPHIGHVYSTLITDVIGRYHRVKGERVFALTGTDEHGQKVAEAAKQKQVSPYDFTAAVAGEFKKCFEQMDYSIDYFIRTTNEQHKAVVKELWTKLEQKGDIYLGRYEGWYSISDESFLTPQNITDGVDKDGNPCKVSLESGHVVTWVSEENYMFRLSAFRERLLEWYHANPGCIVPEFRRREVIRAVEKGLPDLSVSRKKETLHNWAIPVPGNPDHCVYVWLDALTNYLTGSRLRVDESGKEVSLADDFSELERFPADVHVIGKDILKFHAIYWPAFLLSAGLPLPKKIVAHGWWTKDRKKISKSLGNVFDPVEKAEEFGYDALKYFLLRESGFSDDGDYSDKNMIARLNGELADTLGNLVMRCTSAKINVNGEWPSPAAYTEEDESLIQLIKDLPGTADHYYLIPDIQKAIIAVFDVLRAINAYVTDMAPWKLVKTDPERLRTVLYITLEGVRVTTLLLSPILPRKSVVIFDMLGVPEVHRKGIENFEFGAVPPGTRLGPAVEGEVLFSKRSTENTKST

[2] = Counterscreen for inhibitors of Trypanosoma brucei methionyl tRNA synthetase (MetRS): Luminescence-based cell-based high throughput dose response assay to identify compounds that are cytotoxic to Jurkat human T lymphocyte cells.; format: functional
[3] = biological target: T1, Methionyl-tRNA synthetase, putative; format: functional, Trypanosoma brucei brucei strain 927/4 GUTat10.1; remark: listed apart in the source
[4] = biological target: Galanin receptor type 3 (Homo sapiens, UniProt O60755); test: Fluorescence-based cell-based primary high throughput dose response assay to identify antagonists of the Galanin Receptor 3 (GalR3).; format: functional
[5] = cells; format: functional, cell-based; conditions: HEK-CNG
[6] = biological target: Fructose-bisphosphate aldolase (Mycobacterium tuberculosis, UniProt P9WQA3); test: Fluorescence-based biochemical high throughput dose response assay for inhibitors of the fructose-bisphosphate aldolase (FBA) of M. tuberculosis.; format: functional
[7] = Luminescence Cell-Based Dose Response to Identify Activators of 5'UTR Stem-Loop Driven Prion Protein mRNA Translation in H4-C Neuroglioblastoma Cells. [Related pubchem assays: 1829 (Project Summary), 1814 (Primary HTS)]; format: functional
[8] = test system: Streptococcus sp. 'group A'; test: Streptococcus pyogenes SK(-)GAS viability under kanamycin – luminescence, BacTiterGlo, confirmation, counter-screen for streptokinase expression inhibitor project, dose response (AID 1900); format: functional, organism-based
[9] = test system: BJ; test: BJ-TERT fibroblast viability loss – cell-based, RAS-independent, luminescence, dose response (AID 1933); format: functional; conditions: Homo sapiens
[10] = test system: H4; test: Luminescence Cell-Based Dose Response HTS to Identify Activators of 5'UTR Stem-Loop Driven Prion Protein mRNA Translation in H4 Neuroglioblastoma Cells. [Related pubchem assays: 1829 (Project Summary), 1814 (Primary HTS)]; format: functional; conditions: Homo sapiens
[11] = biological target: T2, Streptokinase A (Streptococcus pyogenes serotype M1, UniProt P10520); test: viability-normalized secreted streptokinase activity reduction – plasminogen activation absorbance, OD405, dose response (AID 1914); format: functional, Streptococcus pyogenes M1 GAS;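 also: secreted streptokinase activity via plasminogen activation per viability signal from cell pellet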
T2 sequence (P10520 whole entry): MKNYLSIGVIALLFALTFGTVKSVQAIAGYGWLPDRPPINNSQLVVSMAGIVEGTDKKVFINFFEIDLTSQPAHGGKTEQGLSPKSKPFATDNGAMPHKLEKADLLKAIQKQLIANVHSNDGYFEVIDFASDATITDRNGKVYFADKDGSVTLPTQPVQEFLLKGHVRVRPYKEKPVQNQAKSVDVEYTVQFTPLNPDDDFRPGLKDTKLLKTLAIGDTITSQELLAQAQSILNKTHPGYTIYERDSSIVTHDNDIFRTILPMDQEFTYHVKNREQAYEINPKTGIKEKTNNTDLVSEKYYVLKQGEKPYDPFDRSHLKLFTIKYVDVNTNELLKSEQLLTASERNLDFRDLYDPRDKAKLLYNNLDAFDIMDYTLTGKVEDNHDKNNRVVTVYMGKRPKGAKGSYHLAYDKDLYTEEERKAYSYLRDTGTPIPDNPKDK

[12] = test system: BJ; test: cells; format: functional, cell-based; conditions: Homo sapiens
[13] = Luminescence Cell-Based Dose Response to Identify Activators of Luciferase Translation or Activity in H4-C Neuroglioblastoma Cells. [Related pubchem assays: 1829 (Project Summary), 1814 (Primary HTS)]; format: functional
[14] = biological target: Beta-lactamase (Pseudomonas aeruginosa, UniProt Q79MP6);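 also: biochemical dose-response test of metallo-beta-lactamase enzyme inhibition, read out by epi-absorbance; purified recombinant IMP-1 metallo-beta-lactamase with nitrocefin as substrate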
[15] = Luminescence Cell-Based Dose Confirmation to Identify Activators of 5'UTR Stem-Loop Driven Alpha-Synuclein mRNA Translation in H4 Neuroglioblastoma Cells. [Related pubchem assays: 1829 (Project Summary), 1814 (Primary HTS)]; format: functional
[16] = test system: BJ; test: BJ-TERT-LT-ST fibroblast viability loss – cell-based, RAS-independent, luminescence, dose response (AID 1935); format: functional; conditions: Homo sapiens;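 also: BJ fibroblasts immortalized with TERT plus LT and ST oncogenes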
[17] = biological target: Beta-lactamase (Salmonella choleraesuis (strain SC-B67), UniProt Q5J463)
[18] = DRD fibroblast viability loss – cell-based, non-viral oncogenic, luminescence, dose response (AID 1934); format: functional; conditions: Homo sapiens
[19] = test system: Streptococcus; test: GAS UMAA2166 growth inhibition – luminescence, BacTiterGlo, counter-screen for streptokinase expression inhibitor project, dose response (AID 1915); format: functional, organism-based;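 also: potency for reduction of bacterial viability or growth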
[20] = test system: BJ; test: growth inhibition of engineered Ras-driven BJ cells – cell-based, alamar blue fluorescence, cherrypicked samples, dose response (AID 2631); format: functional; conditions: Homo sapiens;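 also: confirmatory dose-response assay in RAS-dependent BJ fibroblasts engineered with TERT, LT and ST, with cytotoxicity read by fluorescence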
[21] = biological target: Cytochrome P450 2D6 (Homo sapiens, UniProt P10635);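 also: CYP2D6 member of a cytochrome P450 panel assay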
[22] = biological target: Cytochrome P450 3A4 (Homo sapiens, UniProt P08684);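 also: CYP3A4 tested as one member of a cytochrome P450 panel screen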
[23] = biological target: Cytochrome P450 2C9 (Homo sapiens, UniProt P11712)
[24] = test system: HEK293; test: cells; conditions: Homo sapiens
[25] = test system: HEK293; test: cells; conditions: Homo sapiens; remark: listed apart in the source
[26] = biological target: T3, Replicative DNA helicase DnaB (Mycobacterium tuberculosis, UniProt P9WMR3); test: DnaB intein splicing inhibitors, dose response, biochemical, cell-free fluorescence (AID 449749); format: functional
T3 sequence (P9WMR3 whole entry): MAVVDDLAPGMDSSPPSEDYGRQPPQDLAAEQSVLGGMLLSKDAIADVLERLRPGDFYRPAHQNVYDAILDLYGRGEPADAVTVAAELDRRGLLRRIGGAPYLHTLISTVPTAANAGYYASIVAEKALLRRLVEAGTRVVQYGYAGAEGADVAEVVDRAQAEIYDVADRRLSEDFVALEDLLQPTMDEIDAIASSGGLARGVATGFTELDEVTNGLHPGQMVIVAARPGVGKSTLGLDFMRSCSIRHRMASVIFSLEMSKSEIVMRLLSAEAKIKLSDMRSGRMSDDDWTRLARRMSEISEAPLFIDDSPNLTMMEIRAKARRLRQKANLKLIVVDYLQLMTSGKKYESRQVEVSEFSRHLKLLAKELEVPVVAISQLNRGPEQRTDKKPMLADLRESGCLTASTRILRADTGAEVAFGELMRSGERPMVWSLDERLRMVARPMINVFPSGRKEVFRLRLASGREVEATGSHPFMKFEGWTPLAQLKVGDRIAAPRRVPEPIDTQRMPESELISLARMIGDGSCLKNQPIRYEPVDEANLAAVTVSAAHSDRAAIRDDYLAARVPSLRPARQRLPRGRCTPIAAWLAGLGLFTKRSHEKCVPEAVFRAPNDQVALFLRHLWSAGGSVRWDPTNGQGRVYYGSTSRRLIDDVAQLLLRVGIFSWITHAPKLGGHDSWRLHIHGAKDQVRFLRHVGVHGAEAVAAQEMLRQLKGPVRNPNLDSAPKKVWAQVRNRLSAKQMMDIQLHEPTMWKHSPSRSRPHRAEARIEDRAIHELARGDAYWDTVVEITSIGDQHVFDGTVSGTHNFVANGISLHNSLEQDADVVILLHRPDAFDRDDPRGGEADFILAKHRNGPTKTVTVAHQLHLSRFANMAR

[27] = biological target: T4, Protein RecA (Mycobacterium tuberculosis, UniProt P9WHJ3); test: Fluorescence Cell-Free Homogeneous Dose Retest to Identify Inhibitors of RecA-Intein Splicing Activity. [Related pubchem assays (depositor defined):AID2097, AID2223, AID489010, AID492950]; format: functional
T4 sequence (P9WHJ3 whole entry): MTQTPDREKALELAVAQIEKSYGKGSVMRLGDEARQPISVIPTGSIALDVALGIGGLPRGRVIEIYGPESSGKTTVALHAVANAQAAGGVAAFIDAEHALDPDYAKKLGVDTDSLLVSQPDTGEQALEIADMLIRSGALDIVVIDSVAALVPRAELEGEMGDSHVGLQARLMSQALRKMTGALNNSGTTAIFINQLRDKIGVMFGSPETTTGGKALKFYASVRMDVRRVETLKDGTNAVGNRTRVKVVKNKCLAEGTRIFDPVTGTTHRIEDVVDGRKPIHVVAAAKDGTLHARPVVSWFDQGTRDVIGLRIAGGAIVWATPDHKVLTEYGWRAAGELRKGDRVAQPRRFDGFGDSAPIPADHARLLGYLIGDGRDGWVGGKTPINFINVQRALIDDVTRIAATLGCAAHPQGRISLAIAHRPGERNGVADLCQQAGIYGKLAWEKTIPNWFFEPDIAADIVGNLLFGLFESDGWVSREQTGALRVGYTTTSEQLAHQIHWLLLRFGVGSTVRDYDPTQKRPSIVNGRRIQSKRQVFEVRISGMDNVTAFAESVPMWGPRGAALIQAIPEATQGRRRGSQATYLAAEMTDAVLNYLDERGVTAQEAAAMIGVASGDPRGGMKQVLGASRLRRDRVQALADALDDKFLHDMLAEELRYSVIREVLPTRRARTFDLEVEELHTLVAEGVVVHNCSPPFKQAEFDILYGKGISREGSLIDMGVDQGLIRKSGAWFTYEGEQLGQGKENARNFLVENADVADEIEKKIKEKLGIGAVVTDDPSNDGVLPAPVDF

[28] = biological target: SWI/SNF-related matrix-associated actin-dependent regulator of chromatin subfamily A member 2 (Homo sapiens, UniProt P51531); test: Luminescence-based cell-based high throughput dose response assay to identify activators of the function of SWI/SNF related, matrix associated, actin dependent regulator of chromatin, subfamily a, member 2 (SMARCA2, BRM).; format: functional
[29] = Counterscreen for activators of the function of SWI/SNF related, matrix associated, actin dependent regulator of chromatin, subfamily a, member 2 (SMARCA2, BRM): Luminescence-based cell-based high throughput dose response assay to identify non-selective compounds using the VP16 reporter assay.; format: functional

Sequence of Fructose-bisphosphate aldolase (P9WQA3 whole entry): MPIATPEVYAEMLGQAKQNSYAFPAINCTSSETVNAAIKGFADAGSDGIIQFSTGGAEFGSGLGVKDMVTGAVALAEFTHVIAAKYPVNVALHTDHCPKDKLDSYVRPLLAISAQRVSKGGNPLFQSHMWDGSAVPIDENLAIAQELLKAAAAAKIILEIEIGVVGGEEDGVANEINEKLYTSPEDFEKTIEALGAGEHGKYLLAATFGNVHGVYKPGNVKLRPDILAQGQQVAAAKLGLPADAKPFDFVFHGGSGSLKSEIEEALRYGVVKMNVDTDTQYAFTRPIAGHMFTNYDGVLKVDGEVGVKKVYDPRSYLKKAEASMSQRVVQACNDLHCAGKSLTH
Sequence of Galanin receptor type 3 (O60755 whole entry): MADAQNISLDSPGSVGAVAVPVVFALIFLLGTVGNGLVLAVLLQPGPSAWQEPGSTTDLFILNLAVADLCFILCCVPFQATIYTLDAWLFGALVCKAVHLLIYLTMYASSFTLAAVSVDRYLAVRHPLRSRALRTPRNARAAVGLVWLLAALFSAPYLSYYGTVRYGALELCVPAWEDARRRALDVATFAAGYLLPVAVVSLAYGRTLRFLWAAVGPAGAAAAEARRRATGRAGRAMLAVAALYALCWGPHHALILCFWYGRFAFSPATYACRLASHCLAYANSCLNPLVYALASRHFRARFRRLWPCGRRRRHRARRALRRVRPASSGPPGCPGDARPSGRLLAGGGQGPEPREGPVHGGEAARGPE
Sequence of Cytochrome P450 2C9 (P11712 whole entry): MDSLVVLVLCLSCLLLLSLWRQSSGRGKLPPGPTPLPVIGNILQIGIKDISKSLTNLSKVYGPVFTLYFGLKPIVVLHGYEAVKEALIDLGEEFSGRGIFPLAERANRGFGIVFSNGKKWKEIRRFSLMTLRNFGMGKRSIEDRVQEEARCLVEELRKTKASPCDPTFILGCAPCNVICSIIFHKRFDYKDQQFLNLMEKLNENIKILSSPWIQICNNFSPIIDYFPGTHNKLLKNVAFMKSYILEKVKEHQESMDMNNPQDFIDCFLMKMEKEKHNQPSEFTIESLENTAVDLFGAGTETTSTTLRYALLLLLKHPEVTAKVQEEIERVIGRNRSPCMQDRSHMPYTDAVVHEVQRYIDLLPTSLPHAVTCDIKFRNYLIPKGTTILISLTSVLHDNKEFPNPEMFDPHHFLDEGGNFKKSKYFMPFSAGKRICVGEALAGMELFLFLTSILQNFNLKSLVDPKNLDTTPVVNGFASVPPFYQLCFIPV
Sequence of Beta-lactamase (Pseudomonas aeruginosa, UniProt Q79MP6) (Q79MP6 whole entry): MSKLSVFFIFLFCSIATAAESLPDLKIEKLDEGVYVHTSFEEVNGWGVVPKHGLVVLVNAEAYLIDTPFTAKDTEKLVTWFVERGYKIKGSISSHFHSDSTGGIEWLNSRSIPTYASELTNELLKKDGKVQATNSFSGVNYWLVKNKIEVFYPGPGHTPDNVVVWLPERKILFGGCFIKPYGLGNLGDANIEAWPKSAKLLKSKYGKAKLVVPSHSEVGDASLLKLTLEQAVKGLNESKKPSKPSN
Sequence of Beta-lactamase (Salmonella choleraesuis (strain SC-B67), UniProt Q5J463) (Q5J463 whole entry): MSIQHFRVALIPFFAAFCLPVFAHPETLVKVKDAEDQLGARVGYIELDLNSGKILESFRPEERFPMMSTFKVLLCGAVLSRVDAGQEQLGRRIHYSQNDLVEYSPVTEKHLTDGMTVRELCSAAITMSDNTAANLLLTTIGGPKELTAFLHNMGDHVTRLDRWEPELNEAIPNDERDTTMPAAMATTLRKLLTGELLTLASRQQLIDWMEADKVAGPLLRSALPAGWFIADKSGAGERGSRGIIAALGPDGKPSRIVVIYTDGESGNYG
Sequence of Cytochrome P450 2D6 (P10635 whole entry): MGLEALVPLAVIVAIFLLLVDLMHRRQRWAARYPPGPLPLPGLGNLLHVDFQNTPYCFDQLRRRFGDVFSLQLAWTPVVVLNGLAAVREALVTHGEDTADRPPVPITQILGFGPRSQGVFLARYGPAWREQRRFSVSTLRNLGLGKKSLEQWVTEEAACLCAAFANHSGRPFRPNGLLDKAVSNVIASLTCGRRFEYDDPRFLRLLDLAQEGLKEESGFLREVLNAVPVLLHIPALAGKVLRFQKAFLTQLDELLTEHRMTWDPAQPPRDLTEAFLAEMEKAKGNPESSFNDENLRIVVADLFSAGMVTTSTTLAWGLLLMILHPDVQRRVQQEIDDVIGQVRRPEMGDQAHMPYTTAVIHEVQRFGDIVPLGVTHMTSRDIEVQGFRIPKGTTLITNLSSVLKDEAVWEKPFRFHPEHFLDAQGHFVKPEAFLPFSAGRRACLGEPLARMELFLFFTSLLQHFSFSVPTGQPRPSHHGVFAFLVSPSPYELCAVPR
Sequence of Cytochrome P450 3A4 (P08684 whole entry): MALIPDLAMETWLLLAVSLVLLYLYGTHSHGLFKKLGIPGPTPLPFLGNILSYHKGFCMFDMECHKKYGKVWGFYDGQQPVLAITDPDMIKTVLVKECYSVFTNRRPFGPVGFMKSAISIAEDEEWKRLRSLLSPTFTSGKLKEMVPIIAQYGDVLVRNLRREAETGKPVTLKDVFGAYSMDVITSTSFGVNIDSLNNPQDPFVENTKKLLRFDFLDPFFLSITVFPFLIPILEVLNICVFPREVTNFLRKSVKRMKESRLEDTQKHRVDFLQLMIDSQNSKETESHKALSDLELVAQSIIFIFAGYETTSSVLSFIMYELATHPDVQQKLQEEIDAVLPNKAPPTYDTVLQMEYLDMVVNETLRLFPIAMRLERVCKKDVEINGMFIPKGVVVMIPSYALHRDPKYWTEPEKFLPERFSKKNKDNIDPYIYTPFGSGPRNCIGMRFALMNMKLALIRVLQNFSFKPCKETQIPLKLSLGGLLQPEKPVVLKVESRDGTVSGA
Sequence of SWI/SNF-related matrix-associated actin-dependent regulator of chromatin subfamily A member 2 (P51531 whole entry): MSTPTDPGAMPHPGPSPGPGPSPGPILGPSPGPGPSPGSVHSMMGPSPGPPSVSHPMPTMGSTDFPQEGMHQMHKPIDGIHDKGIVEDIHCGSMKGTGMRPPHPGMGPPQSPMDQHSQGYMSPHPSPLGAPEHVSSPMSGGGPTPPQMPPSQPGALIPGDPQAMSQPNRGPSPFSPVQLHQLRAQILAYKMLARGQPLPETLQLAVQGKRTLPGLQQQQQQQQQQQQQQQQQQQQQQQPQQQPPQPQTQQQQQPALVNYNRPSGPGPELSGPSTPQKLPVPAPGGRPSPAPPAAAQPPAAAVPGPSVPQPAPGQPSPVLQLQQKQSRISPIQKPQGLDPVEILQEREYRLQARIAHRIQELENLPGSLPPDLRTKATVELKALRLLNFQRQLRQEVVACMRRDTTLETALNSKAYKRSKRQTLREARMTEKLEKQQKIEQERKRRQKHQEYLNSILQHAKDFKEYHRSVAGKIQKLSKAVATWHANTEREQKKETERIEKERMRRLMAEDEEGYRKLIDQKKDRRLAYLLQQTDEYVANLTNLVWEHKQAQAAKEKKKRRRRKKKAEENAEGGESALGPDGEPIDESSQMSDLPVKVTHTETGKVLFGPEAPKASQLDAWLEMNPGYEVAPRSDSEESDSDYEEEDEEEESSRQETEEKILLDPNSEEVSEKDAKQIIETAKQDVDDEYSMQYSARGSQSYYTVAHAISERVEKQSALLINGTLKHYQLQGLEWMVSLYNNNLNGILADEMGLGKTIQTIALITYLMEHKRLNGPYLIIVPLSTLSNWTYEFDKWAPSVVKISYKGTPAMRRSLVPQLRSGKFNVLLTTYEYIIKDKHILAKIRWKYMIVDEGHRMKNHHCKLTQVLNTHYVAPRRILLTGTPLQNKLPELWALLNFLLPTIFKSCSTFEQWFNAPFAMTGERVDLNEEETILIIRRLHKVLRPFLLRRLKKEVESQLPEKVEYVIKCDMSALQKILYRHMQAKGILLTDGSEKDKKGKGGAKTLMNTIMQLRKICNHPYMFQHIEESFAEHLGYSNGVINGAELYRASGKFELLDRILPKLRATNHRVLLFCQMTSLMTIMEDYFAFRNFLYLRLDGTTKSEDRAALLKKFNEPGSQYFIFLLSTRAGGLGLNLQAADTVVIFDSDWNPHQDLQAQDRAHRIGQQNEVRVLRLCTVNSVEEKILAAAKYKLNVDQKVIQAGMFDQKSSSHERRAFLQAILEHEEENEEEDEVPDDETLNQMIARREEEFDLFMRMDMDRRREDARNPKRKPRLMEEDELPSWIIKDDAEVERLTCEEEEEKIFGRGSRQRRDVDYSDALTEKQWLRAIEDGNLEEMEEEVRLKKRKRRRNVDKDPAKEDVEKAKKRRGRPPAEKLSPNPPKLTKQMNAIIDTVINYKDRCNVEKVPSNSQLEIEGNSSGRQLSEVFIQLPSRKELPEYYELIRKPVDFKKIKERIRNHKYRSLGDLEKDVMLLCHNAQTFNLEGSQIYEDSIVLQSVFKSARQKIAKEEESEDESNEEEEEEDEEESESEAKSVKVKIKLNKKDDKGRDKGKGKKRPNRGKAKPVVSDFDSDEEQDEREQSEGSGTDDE

Structure (SMILES): CS(=O)(=O)c1ccc(Cl)c(NC(=O)c2ccc(-n3cncn3)c([N+](=O)[O-])c2)c1
- IC50 [1]: 7.04 µM (active)
- IC50 [2]: 83.3 µM (inactive)
- IC50 [3]: 2.13 µM (active)

Structure (SMILES): CN(Cc1ccc2c(c1)CCCN2C)C(=O)[C@H]1O[C@@H](n2cnc3c(N)ncnc32)[C@H](O)[C@@H]1O
- IC50 [4]: 3.97 µM (active)
- EC50 [5]: > 29.9 µM (inactive)

Structure (SMILES): O=C(NCCc1ccc(Cl)cc1)Nc1ccc(Cl)cc1
- IC50 [1]: 119 µM (inactive)
- IC50 [2]: 83.3 µM (inactive)
- IC50 [3]: 2.58 µM (active)

Structure (SMILES): Cc1nn(-c2ccccc2)c(O)c1/C=N/c1cnc2ccccc2c1
- IC50 [6]: > 3.33 µM (active)

Structure (SMILES): CCC(/C=C1\Sc2ccc3ccccc3c2N1C)=C\c1sc2ccc3ccccc3c2[n+]1C
- EC50 [7]: > 12 µM (not active)
- EC50 [8]: 3.13 µM (active)
- EC50 [9]: 0.164 µM (active)
- EC50 [10]: > 120 µM (not active)
- EC50 [11]: > 150 µM (not active)
- EC50 [12]: 0.352 µM (inconclusive)
- EC50 [13]: > 12 µM (not active)
- IC50 [14]: > 59.6 µM (inactive)
- EC50 [15]: 3.46 µM (inconclusive)
- EC50 [16]: 0.343 µM (inconclusive)
- IC50 [17]: > 59.6 µM (inactive)
- EC50 [18]: 0.395 µM (active)
- EC50 [19]: 15.5 µM (active)
- EC50 [20]: < 0.104 µM (active)

Structure (SMILES): N#CCSc1nc(N)c(C#N)c(C2CCCCC2)c1C#N
- IC50 [4]: 2.17 µM (active)
- EC50 [5]: > 29.9 µM (inactive)
- AC50 [21]: 39.8 µM (inconclusive)
- AC50 [22]: 3.16 µM (inconclusive)
- AC50 [23]: 12.6 µM (inconclusive)
- EC50 [24]: > 59.6 µM (inactive)
- EC50 [25]: > 59.6 µM (inactive)

Structure (SMILES): Brc1ccc(Cn2c(-c3ccc(Br)o3)nc3ccccc32)o1
- AC50 [26]: 147 µM (active)
- EC50 [27]: 9.48 µM (active)
- EC50 [28]: > 91.2 µM (inactive)
- EC50 [29]: > 91.2 µM (inactive)

Structure (SMILES): CCc1cc(=O)oc2cc(C)cc(OC(C)C(=O)NC3CCN(Cc4ccccc4)CC3)c12 (stereo not given)
- IC50 [6]: 1.52 µM (active)
